Laboratory results reported in article PMC4823954, “From fighting depression to conquering tumors: a novel tricyclic thiazepine compound as a tubulin polymerization inhibitor” (Cell Death & Disease, 2016).

How the values were obtained:
Experiment in all cases: KINOMEscan
Type in all cases: binding
Conditions in all cases: read-out: % Ctrl
[1] = biological target: T1, ADCK4 (Homo sapiens, UniProt Q96D53)
T1 construct: purchased DiscoveRx KINOMEscan
Summary of the method: (§1)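 Competition binding panel of 442 non-mutant kinases: test compound at 5 and 10 μM competed with an active-site-directed ligand for 1 h with shaking. Bound kinase was eluted with 0.5 μM ligand and quantified by qPCR; %Ctrl = (compound − positive control)/(DMSO − positive control) × 100, lower meaning tighter binding.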

[2] = biological target: T2, AKT2 (Homo sapiens, UniProt P31751)
T2 construct: purchased DiscoveRx KINOMEscan
Summary of the method: as §1

[3] = biological target: T3, ALK (Homo sapiens, UniProt Q9UM73)
T3 construct: purchased DiscoveRx KINOMEscan
Summary of the method: as §1

[4] = biological target: T4, BRAF (Homo sapiens, UniProt P15056)
T4 construct: purchased DiscoveRx KINOMEscan
Summary of the method: as §1

[5] = biological target: T5, CAMK1 (Homo sapiens, UniProt Q14012)
T5 construct: purchased DiscoveRx KINOMEscan
Summary of the method: as §1

[6] = biological target: T6, CDK4-cyclinD3 (Homo sapiens, UniProt P11802)
T6 construct: purchased DiscoveRx KINOMEscan
Summary of the method: as §1

[7] = biological target: T7, CLK1 (Homo sapiens, UniProt P49759)
T7 construct: purchased DiscoveRx KINOMEscan
Summary of the method: as §1

[8] = biological target: T8, DDR1 (Homo sapiens, UniProt Q08345)
T8 construct: purchased DiscoveRx KINOMEscan
Summary of the method: as §1

[9] = biological target: T9, DYRK1A (Homo sapiens, UniProt Q13627)
T9 construct: purchased DiscoveRx KINOMEscan
Summary of the method: as §1

[10] = biological target: T10, EGFR(E746-A750del) (Homo sapiens, UniProt P00533, DEL746-750)
T10 construct: purchased DiscoveRx KINOMEscan
T10 sequence (P00533 with tags, fused parts or gaps DEL746-750 limits assumed): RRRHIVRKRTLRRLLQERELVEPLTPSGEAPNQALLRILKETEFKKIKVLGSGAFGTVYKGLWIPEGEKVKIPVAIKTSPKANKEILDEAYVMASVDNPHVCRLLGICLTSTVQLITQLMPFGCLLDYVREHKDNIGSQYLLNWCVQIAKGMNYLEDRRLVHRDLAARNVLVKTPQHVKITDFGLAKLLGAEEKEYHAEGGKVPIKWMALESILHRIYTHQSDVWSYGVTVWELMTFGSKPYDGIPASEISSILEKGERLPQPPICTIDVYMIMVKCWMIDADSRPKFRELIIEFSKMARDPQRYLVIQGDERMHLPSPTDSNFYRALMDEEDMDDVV

[11] = biological target: T11, EGFR(G719S) (Homo sapiens, UniProt P00533, G719S)
T11 construct: purchased DiscoveRx KINOMEscan

[12] = biological target: T12, EGFR(L858R,T790M) (Homo sapiens, UniProt P00533, L858R/T790M)
T12 construct: purchased DiscoveRx KINOMEscan
T12 sequence (P00533 25-1210 T790M/L858R): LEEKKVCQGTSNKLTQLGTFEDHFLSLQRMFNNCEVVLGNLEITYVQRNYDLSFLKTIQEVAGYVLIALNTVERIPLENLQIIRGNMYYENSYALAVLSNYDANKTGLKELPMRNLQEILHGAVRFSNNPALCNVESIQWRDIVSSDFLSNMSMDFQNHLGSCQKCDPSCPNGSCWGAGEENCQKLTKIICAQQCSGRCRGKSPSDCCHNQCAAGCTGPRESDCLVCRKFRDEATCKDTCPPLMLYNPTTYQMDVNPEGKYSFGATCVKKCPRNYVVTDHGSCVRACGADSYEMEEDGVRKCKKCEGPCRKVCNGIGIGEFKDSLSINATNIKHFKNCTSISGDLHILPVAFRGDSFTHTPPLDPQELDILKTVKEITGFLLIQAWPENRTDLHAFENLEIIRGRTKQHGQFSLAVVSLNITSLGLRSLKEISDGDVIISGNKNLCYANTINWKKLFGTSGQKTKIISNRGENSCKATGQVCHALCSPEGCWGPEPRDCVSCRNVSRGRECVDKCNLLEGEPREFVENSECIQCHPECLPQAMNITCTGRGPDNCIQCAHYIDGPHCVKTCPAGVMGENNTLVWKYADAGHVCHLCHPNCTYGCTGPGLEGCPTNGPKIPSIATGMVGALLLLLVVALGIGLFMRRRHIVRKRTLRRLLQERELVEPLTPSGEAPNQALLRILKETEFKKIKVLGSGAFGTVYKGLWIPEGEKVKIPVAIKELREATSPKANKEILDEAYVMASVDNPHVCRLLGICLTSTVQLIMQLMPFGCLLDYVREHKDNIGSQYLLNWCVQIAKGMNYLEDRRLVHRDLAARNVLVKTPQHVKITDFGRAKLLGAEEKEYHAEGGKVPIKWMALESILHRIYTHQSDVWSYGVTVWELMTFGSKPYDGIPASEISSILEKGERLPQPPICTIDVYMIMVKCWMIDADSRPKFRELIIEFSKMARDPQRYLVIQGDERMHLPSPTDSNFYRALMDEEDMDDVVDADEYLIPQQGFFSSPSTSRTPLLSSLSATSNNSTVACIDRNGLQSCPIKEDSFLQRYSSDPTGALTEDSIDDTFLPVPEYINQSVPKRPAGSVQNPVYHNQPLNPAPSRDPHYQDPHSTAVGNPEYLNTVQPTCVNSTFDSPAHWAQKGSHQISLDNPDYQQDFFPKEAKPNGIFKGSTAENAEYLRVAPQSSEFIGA

[13] = biological target: T13, EPHB1 (Homo sapiens, UniProt P54762)
T13 construct: purchased DiscoveRx KINOMEscan
Summary of the method: as §1

[14] = biological target: T14, FES (Homo sapiens, UniProt P07332)
T14 construct: purchased DiscoveRx KINOMEscan
T14 sequence (P07332 whole entry): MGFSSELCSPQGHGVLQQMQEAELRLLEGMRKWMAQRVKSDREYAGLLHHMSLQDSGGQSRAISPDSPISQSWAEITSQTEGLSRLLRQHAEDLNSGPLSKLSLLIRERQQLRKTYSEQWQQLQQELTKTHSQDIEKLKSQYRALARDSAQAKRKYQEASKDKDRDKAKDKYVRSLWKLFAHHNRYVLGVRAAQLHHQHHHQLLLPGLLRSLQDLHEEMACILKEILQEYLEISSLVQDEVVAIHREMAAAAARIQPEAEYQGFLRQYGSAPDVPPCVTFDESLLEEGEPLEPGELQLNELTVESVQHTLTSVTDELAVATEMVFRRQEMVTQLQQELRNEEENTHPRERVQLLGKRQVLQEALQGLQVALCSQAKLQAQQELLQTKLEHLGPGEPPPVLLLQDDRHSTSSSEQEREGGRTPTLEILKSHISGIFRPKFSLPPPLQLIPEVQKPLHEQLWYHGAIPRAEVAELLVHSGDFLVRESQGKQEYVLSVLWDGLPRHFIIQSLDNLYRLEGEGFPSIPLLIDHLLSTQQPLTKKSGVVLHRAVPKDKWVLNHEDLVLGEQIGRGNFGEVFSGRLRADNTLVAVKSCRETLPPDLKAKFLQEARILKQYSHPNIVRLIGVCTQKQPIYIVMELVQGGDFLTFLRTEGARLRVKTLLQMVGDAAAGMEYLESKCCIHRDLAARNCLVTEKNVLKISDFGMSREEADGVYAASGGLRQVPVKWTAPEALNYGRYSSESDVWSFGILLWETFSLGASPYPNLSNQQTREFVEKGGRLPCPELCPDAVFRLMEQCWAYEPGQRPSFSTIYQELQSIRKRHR
Summary of the method: as §1

[15] = biological target: T15, FGR (Homo sapiens, UniProt P09769)
T15 construct: purchased DiscoveRx KINOMEscan
T15 sequence (P09769 whole entry): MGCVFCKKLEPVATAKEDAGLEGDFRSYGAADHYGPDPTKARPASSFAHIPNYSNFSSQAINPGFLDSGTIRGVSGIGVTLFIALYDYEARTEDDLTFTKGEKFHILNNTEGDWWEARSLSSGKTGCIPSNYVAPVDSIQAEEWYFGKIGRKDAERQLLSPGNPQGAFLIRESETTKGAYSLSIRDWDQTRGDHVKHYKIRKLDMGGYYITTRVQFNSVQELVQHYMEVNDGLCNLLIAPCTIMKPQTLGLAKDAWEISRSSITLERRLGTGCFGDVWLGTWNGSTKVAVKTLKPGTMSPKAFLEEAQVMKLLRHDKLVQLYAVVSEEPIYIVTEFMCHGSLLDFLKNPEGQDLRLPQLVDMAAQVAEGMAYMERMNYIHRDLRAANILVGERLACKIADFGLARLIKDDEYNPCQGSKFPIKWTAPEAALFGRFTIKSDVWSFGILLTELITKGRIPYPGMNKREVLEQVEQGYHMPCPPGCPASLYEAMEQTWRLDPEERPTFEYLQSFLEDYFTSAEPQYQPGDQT
Summary of the method: as §1

[16] = biological target: T16, FLT1 (Homo sapiens, UniProt P17948)
T16 construct: purchased DiscoveRx KINOMEscan
Summary of the method: as §1

[17] = biological target: T17, MAP3K2 (Homo sapiens, UniProt Q9Y2U5)
T17 construct: purchased DiscoveRx KINOMEscan
T17 sequence (Q9Y2U5 whole entry): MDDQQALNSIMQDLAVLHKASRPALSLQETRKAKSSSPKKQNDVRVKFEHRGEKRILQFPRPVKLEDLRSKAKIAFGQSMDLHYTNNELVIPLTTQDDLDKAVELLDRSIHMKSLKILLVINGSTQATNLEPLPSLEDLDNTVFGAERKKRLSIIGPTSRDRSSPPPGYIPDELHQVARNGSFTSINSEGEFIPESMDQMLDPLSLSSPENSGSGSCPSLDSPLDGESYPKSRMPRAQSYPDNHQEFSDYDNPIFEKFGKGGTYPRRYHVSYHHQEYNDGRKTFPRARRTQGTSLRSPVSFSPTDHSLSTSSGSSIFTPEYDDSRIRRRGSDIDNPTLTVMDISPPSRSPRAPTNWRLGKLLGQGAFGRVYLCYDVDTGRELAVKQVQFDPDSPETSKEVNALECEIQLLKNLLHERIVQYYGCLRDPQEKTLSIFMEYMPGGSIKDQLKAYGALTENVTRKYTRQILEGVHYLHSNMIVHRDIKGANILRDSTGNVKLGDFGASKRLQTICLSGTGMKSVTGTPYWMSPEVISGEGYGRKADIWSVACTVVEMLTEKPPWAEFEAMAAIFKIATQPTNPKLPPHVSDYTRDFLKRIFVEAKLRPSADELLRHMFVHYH
Summary of the method: as §1

[18] = biological target: T18, MAPKAPK5 (Homo sapiens, UniProt Q8IW41)
T18 construct: purchased DiscoveRx KINOMEscan
T18 sequence (Q8IW41 whole entry): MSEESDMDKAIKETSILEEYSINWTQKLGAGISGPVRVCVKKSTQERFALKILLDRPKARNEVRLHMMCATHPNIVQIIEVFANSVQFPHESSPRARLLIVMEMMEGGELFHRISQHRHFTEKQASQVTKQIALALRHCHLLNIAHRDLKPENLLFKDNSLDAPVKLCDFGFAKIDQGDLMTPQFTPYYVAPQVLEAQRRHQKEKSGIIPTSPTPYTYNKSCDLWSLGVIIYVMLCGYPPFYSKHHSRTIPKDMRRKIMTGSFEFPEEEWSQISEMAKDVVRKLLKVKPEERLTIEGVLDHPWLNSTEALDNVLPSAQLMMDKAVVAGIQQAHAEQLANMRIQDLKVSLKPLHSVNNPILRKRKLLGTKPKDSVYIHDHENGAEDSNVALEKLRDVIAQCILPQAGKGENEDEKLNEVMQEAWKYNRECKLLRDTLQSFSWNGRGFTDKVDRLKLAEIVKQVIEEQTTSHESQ
Summary of the method: as §1

[19] = biological target: T19, MEK2 (Homo sapiens, UniProt P36507)
T19 construct: purchased DiscoveRx KINOMEscan
Summary of the method: as §1

[20] = biological target: T20, MEK6 (Homo sapiens, UniProt P52564)
T20 construct: purchased DiscoveRx KINOMEscan
Summary of the method: as §1

[21] = biological target: T21, PAK7 (Homo sapiens, UniProt Q9P286)
T21 construct: purchased DiscoveRx KINOMEscan
Summary of the method: as §1

[22] = biological target: T22, PDGFRB (Homo sapiens, UniProt P09619)
T22 construct: purchased DiscoveRx KINOMEscan
Summary of the method: as §1

[23] = biological target: T23, PFTAIRE2 (Homo sapiens, UniProt Q96Q40)
T23 construct: purchased DiscoveRx KINOMEscan
Summary of the method: as §1

[24] = biological target: T24, PIK3CD (Homo sapiens, UniProt O00329)
T24 construct: purchased DiscoveRx KINOMEscan
T24 sequence (O00329 whole entry): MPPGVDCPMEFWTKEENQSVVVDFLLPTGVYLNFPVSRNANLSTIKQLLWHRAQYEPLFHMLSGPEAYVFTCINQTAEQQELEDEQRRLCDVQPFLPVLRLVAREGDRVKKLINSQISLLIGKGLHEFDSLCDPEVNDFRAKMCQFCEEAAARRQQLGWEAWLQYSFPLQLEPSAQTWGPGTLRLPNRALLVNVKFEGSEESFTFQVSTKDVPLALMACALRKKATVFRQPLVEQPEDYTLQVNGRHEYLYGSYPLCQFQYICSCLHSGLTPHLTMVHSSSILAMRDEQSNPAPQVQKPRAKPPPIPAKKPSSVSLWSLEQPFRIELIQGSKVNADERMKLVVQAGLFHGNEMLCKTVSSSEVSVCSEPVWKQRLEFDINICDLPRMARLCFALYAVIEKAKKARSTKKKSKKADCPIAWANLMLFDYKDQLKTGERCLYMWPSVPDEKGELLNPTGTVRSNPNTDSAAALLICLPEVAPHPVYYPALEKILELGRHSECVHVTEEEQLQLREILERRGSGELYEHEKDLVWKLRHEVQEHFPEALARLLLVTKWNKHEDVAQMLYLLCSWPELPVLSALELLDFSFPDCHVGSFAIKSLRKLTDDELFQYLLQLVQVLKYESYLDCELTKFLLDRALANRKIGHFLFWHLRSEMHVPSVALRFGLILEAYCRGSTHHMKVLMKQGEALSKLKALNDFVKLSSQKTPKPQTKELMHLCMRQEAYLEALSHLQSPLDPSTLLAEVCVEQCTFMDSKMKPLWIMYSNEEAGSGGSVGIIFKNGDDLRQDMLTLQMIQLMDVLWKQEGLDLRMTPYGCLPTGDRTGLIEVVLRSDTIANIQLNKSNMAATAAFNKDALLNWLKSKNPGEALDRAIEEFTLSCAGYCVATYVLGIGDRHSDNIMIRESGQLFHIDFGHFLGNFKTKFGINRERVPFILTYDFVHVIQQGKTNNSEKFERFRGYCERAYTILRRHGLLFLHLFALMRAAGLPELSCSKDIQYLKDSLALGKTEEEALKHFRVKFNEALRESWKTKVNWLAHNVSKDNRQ
Summary of the method: as §1

[25] = biological target: T25, RIOK1 (Homo sapiens, UniProt Q9BRS2)
T25 construct: purchased DiscoveRx KINOMEscan
Summary of the method: as §1

[26] = biological target: T26, S6K1 (Homo sapiens, UniProt P23443)
T26 construct: purchased DiscoveRx KINOMEscan
Summary of the method: as §1

[27] = biological target: T27, SRC (Homo sapiens, UniProt P12931)
T27 construct: purchased DiscoveRx KINOMEscan
Summary of the method: as §1

[28] = biological target: T28, SRMS (Homo sapiens, UniProt Q9H3Y6)
T28 construct: purchased DiscoveRx KINOMEscan
Summary of the method: as §1

[29] = biological target: T29, TESK1 (Homo sapiens, UniProt Q15569)
T29 construct: purchased DiscoveRx KINOMEscan
Summary of the method: as §1

[30] = biological target: T30, YSK4 (Homo sapiens, UniProt Q56UN5)
T30 construct: purchased DiscoveRx KINOMEscan
Summary of the method: as §1

Cc1ccc(C2=Nc3cccnc3S(=O)(=O)c3ccccc32)cc1 [TBPT, 6-(p-tolyl)benzo[f] pyrido[2,3-b][1,4] thiazepine 11,11-dioxide]
81%: remaining binding at 5 µM ([10]; 5 μM)
82%: remaining binding at 5 µM ([17]; 5 μM)
68%: remaining binding at 5 µM ([22]; 5 μM)
73%: remaining binding at 10 µM ([15]; 10 μM)
78%: remaining binding at 5 µM ([12]; 5 μM) | remaining binding at 5 µM ([21]; 5 μM)
87%: remaining binding at 5 µM ([27]; 5 μM) | remaining binding at 5 µM ([28]; 5 μM) | remaining binding at 5 µM ([29]; 5 μM)
90%: remaining binding at 10 µM ([6]; 10 μM)
89%: remaining binding at 10 µM ([23]; 10 μM)
71%: remaining binding at 10 µM ([3]; 10 μM)
100%: remaining binding at 10 µM ([2]; 10 μM) | remaining binding at 5 µM ([3]; 5 μM) | remaining binding at 5 µM ([4]; 5 μM) | remaining binding at 10 µM ([4]; 10 μM) | remaining binding at 5 µM ([6]; 5 μM) | remaining binding at 10 µM ([7]; 10 μM) | remaining binding at 5 µM ([8]; 5 μM) | remaining binding at 10 µM ([9]; 10 μM) | remaining binding at 10 µM ([10]; 10 μM) | remaining binding at 5 µM ([13]; 5 μM) | remaining binding at 10 µM ([13]; 10 μM) | remaining binding at 5 µM ([14]; 5 μM) | remaining binding at 5 µM ([16]; 5 μM) | remaining binding at 10 µM ([17]; 10 μM) | remaining binding at 5 µM ([18]; 5 μM) | remaining binding at 10 µM ([19]; 10 μM) | remaining binding at 10 µM ([20]; 10 μM) | remaining binding at 10 µM ([22]; 10 μM) | remaining binding at 5 µM ([23]; 5 μM) | remaining binding at 10 µM ([24]; 10 μM) | remaining binding at 5 µM ([26]; 5 μM) | remaining binding at 10 µM ([27]; 10 μM)
76%: remaining binding at 5 µM ([2]; 5 μM) | remaining binding at 10 µM ([25]; 10 μM)
95%: remaining binding at 5 µM ([7]; 5 μM) | remaining binding at 10 µM ([21]; 10 μM) | remaining binding at 10 µM ([29]; 10 μM)
98%: remaining binding at 10 µM ([5]; 10 μM) | remaining binding at 10 µM ([14]; 10 μM) | remaining binding at 10 µM ([16]; 10 μM) | remaining binding at 5 µM ([30]; 5 μM) | remaining binding at 10 µM ([30]; 10 μM)
97%: remaining binding at 5 µM ([15]; 5 μM) | remaining binding at 10 µM ([28]; 10 μM)
83%: remaining binding at 5 µM ([1]; 5 μM) | remaining binding at 5 µM ([11]; 5 μM) | remaining binding at 5 µM ([20]; 5 μM) | remaining binding at 5 µM ([25]; 5 μM)
92%: remaining binding at 10 µM ([8]; 10 μM) | remaining binding at 5 µM ([19]; 5 μM)
88%: remaining binding at 5 µM ([9]; 5 μM) | remaining binding at 10 µM ([12]; 10 μM) | remaining binding at 10 µM ([18]; 10 μM) | remaining binding at 10 µM ([26]; 10 μM)
96%: remaining binding at 5 µM ([5]; 5 μM)
94%: remaining binding at 10 µM ([1]; 10 μM) | remaining binding at 10 µM ([11]; 10 μM) | remaining binding at 5 µM ([24]; 5 μM)
